# Test results taken from patent US12440481B2, “Esters and carbamates as modulators of sodium channels” (VERTEX PHARMACEUTICALS INCORPORATED, priority 2019, dated 2025).
# pIC50: −log10 of the molar value.
# Target: human NaV 1.8 (Homo sapiens, UniProt Q9Y5Y9)
# Experiment: E-VIPR Assay for Detecting and Measuring NaV Inhibition Properties
# Assay type: cell-based
# Settings: HEK cells expressing a truncated form of human NaV 1.8; HS = human serum; read-out: EVIPR HS IC50
# Excerpt: E-VIPR Assay for Detecting and Measuring NaV Inhibition Properties
# Sodium ion channels are voltage-dependent proteins that can be activated by inducing membrane voltage changes by applying electric fields. The electrical stimulation instrument and methods of use, referred to as E-VIPR, are described in International Publication No. WO 2002/008748 A3 and C.-J. Huang et al. Characterization of voltage-gated sodium channel blockers by electrical stimulation and fluorescence detection of membrane potential, 24 Nature Biotech. 439-46 (2006), both of which are incorporated by reference in their entirety. The instrument comprises a microtiter plate handler, an optical system for exciting the coumarin dye while simultaneously recording the coumarin and oxonol emissions, a waveform generator, a current- or voltage-controlled amplifier, and parallel electrode pairs that are inserted into assay plate wells. Under integrated computer control, this instrument passes user-programmed electrical stimulus protocols to cells within the wells of the microtiter plate.
# 16-20 hours prior to running the assay on E-VIPR, HEK cells expressing a truncated form of human NaV 1.8 with full channel activity were seeded into microtiter 384-well plates, pre-coated with matrigel, at a density of 25,000 cells per well. 2.5-5% KIR2.1 Bacmam virus was added to the final cell suspension before seeding into cell plates. HEK cells were grown in Dulbecco's Modified Eagle's Medium (DMEM) supplemented with 10% FBS (Fetal Bovine Serum, qualified; Sigma #F4135), 1% NEAA (Non-Essential Amino Acids, Gibco #11140), 1% HEPES (Gibco #15630), 1% Pen-Strep (Penicillin-Streptomycin; Gibco #15140) and 5 μg/ml Blasticidin (Gibco #R210-01). Cells were expanded in vented cap cell culture flasks, with 90-95% humidity and 5% CO2.
# Reagents and Stock Solutions:
# • 100 mg/mL Pluronic F-127 (Sigma #P2443), in dry DMSO • Compound Plates: Corning 384-well Polypropylene Round Bottom #3656 • Cell Plates: 384-well tissue culture treated plates (Greiner #781091-1B) • 2.5-5% KIR 2.1 Bacmam virus (produced in-house), prepared as described in Section 3.3 of J. A. Fornwald et al., Gene Expression in Mammalian Cells Using BacMam, a Modified Baculovirus System, 1350 Methods in Molecular Biology 95-116 (2016), the entire contents of which are incorporated by reference. The concentration used can be dependent on viral titer of each batch. • 5 mM DiSBAC6 (3), a voltage sensitive oxonol acceptor (CAS number 169211-44-3; 5-[3-(1,3-dihexylhexahydro-4,6-dioxo-2-thioxo-5-pyrimidinyl)-2-propen-1-ylidene]-1,3-dihexyldihydro-2-thioxo-4,6(1H,5H)-pyrimidinedione), in dry DMSO. The preparation of DiSBAC6 (3) is analogous to that of DiSBAC4 (3) as described in Voltage Sensing by Fluorescence Resonance Energy Transfer in Single Cells, Gonzalez, J. E. and Tsien, R. Y. (1995) Biophys. J. 69, 1272-1280. • 5 mM CC2-DMPE, a commercially available membrane-bound coumarin phospholipid FRET donor (ThermoFisher Scientific catalog number K1017, CAS number 393782-57-5; tetradecanoic acid, 1,1′-[(1R)-1-[8-(6-chloro-7-hydroxy-2-oxo-2H-1-benzopyran-3-yl)-3-hydroxy-3-oxido-8-oxo-2,4-dioxa-7-aza-3-phosphaoct-1-yl]-1,2-ethanediyl] ester) was prepared in dry DMSO. […]
# Chain of human NaV 1.8 (Q9Y5Y9 whole entry, looked up): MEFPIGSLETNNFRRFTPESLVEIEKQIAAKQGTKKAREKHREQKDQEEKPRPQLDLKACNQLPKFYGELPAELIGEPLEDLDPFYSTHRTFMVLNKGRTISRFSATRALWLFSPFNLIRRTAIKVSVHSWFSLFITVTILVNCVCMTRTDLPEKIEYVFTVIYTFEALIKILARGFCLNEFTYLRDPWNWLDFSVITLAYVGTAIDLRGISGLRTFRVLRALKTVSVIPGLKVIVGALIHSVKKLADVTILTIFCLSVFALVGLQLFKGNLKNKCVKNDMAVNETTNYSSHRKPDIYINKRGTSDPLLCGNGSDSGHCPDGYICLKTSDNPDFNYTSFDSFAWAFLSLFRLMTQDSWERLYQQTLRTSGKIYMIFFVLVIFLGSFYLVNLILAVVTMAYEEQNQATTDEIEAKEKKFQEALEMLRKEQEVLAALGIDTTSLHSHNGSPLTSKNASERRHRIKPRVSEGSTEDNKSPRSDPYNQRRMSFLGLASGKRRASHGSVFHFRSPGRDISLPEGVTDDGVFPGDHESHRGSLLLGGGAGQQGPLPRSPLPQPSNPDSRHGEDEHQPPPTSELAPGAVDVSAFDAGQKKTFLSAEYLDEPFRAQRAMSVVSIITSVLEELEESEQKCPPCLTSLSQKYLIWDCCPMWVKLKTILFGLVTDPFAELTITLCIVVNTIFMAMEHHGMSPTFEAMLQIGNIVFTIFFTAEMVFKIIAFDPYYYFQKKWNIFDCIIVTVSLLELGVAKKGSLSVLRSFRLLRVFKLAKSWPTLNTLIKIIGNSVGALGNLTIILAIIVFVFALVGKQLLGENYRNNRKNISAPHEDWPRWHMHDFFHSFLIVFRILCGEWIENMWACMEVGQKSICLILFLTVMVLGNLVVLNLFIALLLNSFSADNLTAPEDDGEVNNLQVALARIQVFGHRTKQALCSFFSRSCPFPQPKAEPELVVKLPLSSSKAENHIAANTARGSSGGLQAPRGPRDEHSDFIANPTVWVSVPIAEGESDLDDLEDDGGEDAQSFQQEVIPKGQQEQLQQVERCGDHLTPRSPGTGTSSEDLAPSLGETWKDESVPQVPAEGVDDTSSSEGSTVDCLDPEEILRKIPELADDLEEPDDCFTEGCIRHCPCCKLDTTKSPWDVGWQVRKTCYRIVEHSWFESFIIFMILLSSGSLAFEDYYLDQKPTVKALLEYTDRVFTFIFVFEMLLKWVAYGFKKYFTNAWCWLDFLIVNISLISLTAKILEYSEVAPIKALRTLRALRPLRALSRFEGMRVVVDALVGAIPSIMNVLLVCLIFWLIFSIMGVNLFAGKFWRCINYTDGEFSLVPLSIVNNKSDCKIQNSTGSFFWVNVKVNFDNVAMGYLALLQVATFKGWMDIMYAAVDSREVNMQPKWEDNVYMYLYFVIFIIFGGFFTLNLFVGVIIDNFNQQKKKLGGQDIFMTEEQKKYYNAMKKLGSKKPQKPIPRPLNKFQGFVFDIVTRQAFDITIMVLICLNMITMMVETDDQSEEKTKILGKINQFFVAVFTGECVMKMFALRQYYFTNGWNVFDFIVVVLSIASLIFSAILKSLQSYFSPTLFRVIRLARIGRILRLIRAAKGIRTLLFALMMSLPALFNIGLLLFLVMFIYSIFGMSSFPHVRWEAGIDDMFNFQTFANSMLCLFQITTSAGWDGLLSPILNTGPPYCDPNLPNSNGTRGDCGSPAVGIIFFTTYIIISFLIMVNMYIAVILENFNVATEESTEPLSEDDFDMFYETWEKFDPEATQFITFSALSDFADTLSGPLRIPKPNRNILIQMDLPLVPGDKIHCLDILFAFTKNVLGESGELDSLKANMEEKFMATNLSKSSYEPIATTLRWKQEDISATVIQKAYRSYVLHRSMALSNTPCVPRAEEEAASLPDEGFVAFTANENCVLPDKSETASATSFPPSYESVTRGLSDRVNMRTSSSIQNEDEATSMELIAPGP
row,SMILES,pIC50
1,"COC(=O)c1cc(NC(=O)c2c(Oc3ccc(OC(F)(F)F)cc3Cl)ccc(C3CC3)c2C)c(C)cn1 [Compound 22, Methyl 4-[[6-[2-chloro-4-(trifluoromethoxy)phenoxy]-3-cyclopropyl-2-methyl-benzoyl]amino]-5-methyl-pyridine-2-carboxylate]",≤ 6.00
2,"COC(=O)c1cc(NC(=O)c2c(Oc3ccc(OC(F)(F)F)c(F)c3C)ccc(C(F)(F)F)c2C)c(C)cn1 [Compound 16, Methyl 4-[[6-[3-fluoro-2-methyl-4-(trifluoromethoxy)phenoxy]-2-methyl-3-(trifluoromethyl)benzoyl]amino]-5-methyl-pyridine-2-carboxylate]",> 7.00
3,"COC(=O)c1ccc(NC(=O)c2c(Oc3ccc(F)cc3OC)ccc(C(F)(F)F)c2F)cn1 [Compound 10, methyl 5-[[2-fluoro-6-(4-fluoro-2-methoxy-phenoxy)-3-(trifluoromethyl)benzoyl]amino]pyridine-2-carboxylate]",≤ 6.00
4,"COC(=O)c1cc(NC(=O)c2c(Oc3ccc(OC(F)(F)F)c(F)c3OC)ccc(C(F)(F)F)c2F)cc(C(=O)OC)n1 [Compound 35, dimethyl 4-(2-fluoro-6-(3-fluoro-2-methoxy-4-(trifluoromethoxy)phenoxy)-3-(trifluoromethyl)benzamido)pyridine-2,6-dicarboxylate]",6.30 to 7.00
5,"COC(=O)c1cc(NC(=O)c2c(Oc3ccc(OC(F)(F)F)c(F)c3OC)ccc(C(F)(F)F)c2F)c(C2CC2)cn1 [Compound 27, methyl 5-cyclopropyl-4-(2-fluoro-6-(3-fluoro-2-methoxy-4-(trifluoromethoxy)phenoxy)-3-(trifluoromethyl)benzamido)picolinate]",≤ 6.00
6,"COC(=O)c1nccc(NC(=O)c2c(Oc3ccc(F)c(F)c3C)ccc(C(F)(F)F)c2C)c1C [Compound 19, Methyl 4-[[6-(3,4-difluoro-2-methyl-phenoxy)-2-methyl-3-(trifluoromethyl)benzoyl]amino]-3-methyl-pyridine-2-carboxylate]",≤ 6.00
7,"COC(=O)c1cc(NC(=O)c2c(Oc3ccc(OC(F)(F)F)c(F)c3C)ccc(C(F)(F)F)c2F)c(C)cn1 [Compound 17, Methyl 4-[[2-fluoro-6-[3-fluoro-2-methyl-4-(trifluoromethoxy)phenoxy]-3-(trifluoromethyl)benzoyl]amino]-5-methyl-pyridine-2-carboxylate]",> 7.00
8,"COC(=O)c1nccc(NC(=O)c2c(Oc3ccc(OC(F)(F)F)c(F)c3OC)ccc(C(F)(F)F)c2C)c1C [Compound 32, methyl 4-(6-(3-fluoro-2-methoxy-4-(trifluoromethoxy)phenoxy)-2-methyl-3-(trifluoromethyl)benzamido)-3-methylpicolinate]",≤ 6.00
9,"COC(=O)c1cc(NC(=O)c2c(Oc3ccc(OC(F)(F)F)cc3OC)ccc(C3CC3)c2C)c(C)cn1 [Compound 2, methyl 4-[[3-cyclopropyl-6-[2-methoxy-4-(trifluoromethoxy)phenoxy]-2-methyl-benzoyl]amino]-5-methyl-pyridine-2-carboxylate]",6.30 to 7.00
10,"COC(=O)c1cc(NC(=O)c2c(Oc3ccc(OC(F)(F)F)c(F)c3Cl)ccc(C(F)(F)F)c2F)c(C)cn1 [Compound 20, Methyl 4-[[6-[2-chloro-3-fluoro-4-(trifluoromethoxy)phenoxy]-2-fluoro-3-(trifluoromethyl)benzoyl]amino]-5-methyl-pyridine-2-carboxylate]",> 7.00
11,"COC(=O)c1cc(NC(=O)c2c(Oc3ccc(OC(F)(F)F)c(F)c3OC)ccc(C(F)(F)F)c2C)c(C2CC2)cn1 [Compound 28, methyl 5-cyclopropyl-4-(6-(3-fluoro-2-methoxy-4-(trifluoromethoxy)phenoxy)-2-methyl-3-(trifluoromethyl)benzamido)picolinate]",≤ 6.00

# Now from value to compound:
row,pIC50,SMILES
1,6.00 to 6.30,"COC(=O)c1nccc(NC(=O)c2c(Oc3ccc(OC(F)(F)F)cc3OC)ccc(C(F)(F)F)c2F)c1F [Compound 29, methyl 3-fluoro-4-(2-fluoro-6-(2-methoxy-4-(trifluoromethoxy)phenoxy)-3-(trifluoromethyl)benzamido)picolinate]"
2,6.00 to 6.30,"COC(=O)c1ccnc(NC(=O)c2c(Oc3ccc(OC(F)(F)F)c(F)c3OC)ccc(C(F)(F)F)c2F)c1 [Compound 23, Methyl 2-[[2-fluoro-6-[3-fluoro-2-methoxy-4-(trifluoromethoxy)phenoxy]-3-(trifluoromethyl)benzoyl]amino]pyridine-4-carboxylate]"
3,6.30 to 7.00,"[2H]C([2H])([2H])Oc1cc(OC(F)(F)F)ccc1Oc1cc(C(F)(F)F)c(F)cc1C(=O)Nc1ccnc(C(=O)OC)c1 [Compound 6, methyl 4-[[5-fluoro-2-[2-(trideuteriomethoxy)-4-(trifluoromethoxy)phenoxy]-4-(trifluoromethyl)benzoyl]amino]pyridine-2-carboxylate]"
4,≤ 6.00,"COC(=O)c1ccc(NC(=O)c2c(Oc3ccc(OC(F)(F)F)cc3)ccc(C(F)(F)F)c2F)cn1 [Compound 13, methyl 5-[[2-fluoro-6-[4-(trifluoromethoxy)phenoxy]-3-(trifluoromethyl)benzoyl]amino]pyridine-2-carboxylate]"
5,6.00 to 6.30,"[2H]C([2H])([2H])Oc1cc(OC(F)(F)F)ccc1Oc1ccc(C(F)(F)F)cc1C(=O)Nc1ccnc(C(=O)OC)c1 [Compound 8, methyl 4-[[2-[2-(trideuteriomethoxy)-4-(trifluoromethoxy)phenoxy]-5-(trifluoromethyl)benzoyl]amino]pyridine-2-carboxylate]"
6,6.30 to 7.00,"COC(=O)c1cc(NC(=O)c2c(Oc3ccc(OC(F)(F)F)cc3)ccc(C(F)(F)F)c2F)ccn1 [Compound 3, methyl 4-[[2-fluoro-6-[4-(trifluoromethoxy)phenoxy]-3-(trifluoromethyl)benzoyl]amino]pyridine-2-carboxylate]"
7,6.30 to 7.00,"COC(=O)c1cc(NC(=O)c2c(Oc3ccc(OC(F)(F)F)cc3OC)ccc(C(F)(F)F)c2O)ccn1 [Compound 25, Methyl 4-[[2-hydroxy-6-[2-methoxy-4-(trifluoromethoxy)phenoxy]-3-(trifluoromethyl)benzoyl]amino]pyridine-2-carboxylate]"
8,≤ 6.00,"[2H]C([2H])([2H])Oc1cc(OC(F)(F)F)ccc1Oc1ccc(C(F)(F)F)cc1C(=O)Nc1ccnc(NC(=O)OC(C)(C)C)c1 [Compound 9, tert-butyl N-[4-[[2-[2-(trideuteriomethoxy)-4-(trifluoromethoxy)phenoxy]-5-(trifluoromethyl)benzoyl]amino]-2-pyridyl]carbamate]"
9,6.30 to 7.00,"[2H]C([2H])([2H])Oc1cc(OC(F)(F)F)ccc1Oc1ccc(C(F)(F)F)c(F)c1C(=O)Nc1ccc(C(=O)OC)nc1 [Compound 11, methyl 5-[[2-fluoro-6-[2-(trideuteriomethoxy)-4-(trifluoromethoxy)phenoxy]-3-(trifluoromethyl)benzoyl]amino]pyridine-2-carboxylate]"
10,≤ 6.00,"[2H]C([2H])([2H])Oc1cc(OC(F)(F)F)ccc1Oc1ccc(C(F)(F)F)cc1C(=O)Nc1ccc(C(=O)OC)nc1 [Compound 12, methyl 5-[[2-[2-(trideuteriomethoxy)-4-(trifluoromethoxy)phenoxy]-5-(trifluoromethyl)benzoyl]amino]pyridine-2-carboxylate]"
11,≤ 6.00,"COC(=O)c1nccc(NC(=O)c2c(Oc3ccc(OC(F)(F)F)cc3OC)ccc(C(F)(F)F)c2C)c1C [Compound 33, methyl 4-(6-(2-methoxy-4-(trifluoromethoxy)phenoxy)-2-methyl-3-(trifluoromethyl)benzamido)-3-methylpicolinate]"
12,≤ 6.00,"COC(=O)c1nccc(NC(=O)c2c(Oc3ccc(OC(F)(F)F)cc3OC)ccc(C(F)(F)F)c2F)c1C [Compound 21, Methyl 4-[[2-fluoro-6-[2-methoxy-4-(trifluoromethoxy)phenoxy]-3-(trifluoromethyl)benzoyl]amino]-3-methyl-pyridine-2-carboxylate]"
